Values quoted from earlier work, collected in PMC5522529, “Mechanisms of Paradoxical Activation of AMPK by the Kinase Inhibitors SU6656 and Sorafenib” (Cell Chemical Biology, 2017).

System: LKB1 versus AMPK
Design: method as in MRC Kinase Inhibitor Database
Conditions: ref MRC Kinase Inhibitor Database; cited from earlier work

## c1cc(-c2cnn3cc(-c4ccc(OCCN5CCCCC5)cc4)cnc23)ccn1 [compound C]
  potency of LKB1 inhibition relative to AMPK inhibition: inhibit LKB1 with similar potency to AMPK
